Results published in patent US20070026065A1, “Solid, modified-release pharmaceutical dosage forms which can be administered orally” (Bayer HealthCare AG, priority 2004, published 2007).
≈ marks a conversion by molar mass, not a printed value.

Columns and labels:
Solubility in water = assay type: physicochemical; details: 25° C.
Text: (§1) Accordingly, for the desired once a day administration, specific pharmaceutical formulations with modified release of the active ingredient (I), taking account of its physicochemical and biological properties, are required.

Plasma half-life = assay type: in vivo
Text: as §1

O=C(NC[C@H]1CN(c2ccc(N3CCOCC3=O)cc2)C(=O)O1)c1ccc(Cl)s1 [active ingredient (I), 5-Chloro-N-({(5S)-2-oxo-3-[4-(3-oxo-4-morpholinyl)phenyl]-1,3-oxazolidin-5-yl}methyl)-2-thiophenecarboxamide]
solubility (Solubility in water): ~7 µg/mL (≈ 16.1 µM)
half-life (Plasma half-life): ~7 h
